Experimental data as given in patent publication US8916686B2, “TDF-related compounds and analogs thereof” (Thrasos Innovation, Inc., priority 2004, dated 2014).

Assays:
[1] = system: CD1 mouse model of streptozotocin (STZ)-induced diabetic nephropathy; assay: Streptozotocin (STZ)-induced diabetic nephropathy; type: in vivo; conditions: ip 5 mg/kg/24 hr; after one month treatment
Experimental: Reversal of interstitial fibrosis by Thrasos compound SEQ ID NO 45 in a CD1 mouse model of streptozotocin (STZ)-induced diabetic nephropathy. FIG. 7A. schematic of the experimental protocol, FIG. 7B: Kidney section of vehicle-treated animal, FIG. 7C: Kidney section of animal received ip administration of Thrasos compound (5 mg/kg/24 hr). Sac: After one month treatment.

HK-2 cells = assay: Apoptosis detection using Annexin V immunostaining after cisplatin; type: cell-based, human; conditions: 10 uM cisplatin; 500 uM compound prophylactically or therapeutically
Experimental: Apoptosis and cell viability are quantified using AnnexinV-FITC and propidium iodide staining of HK-2 cells following cisplatin treatment Immortalized PTEC-derived HK-2 cells (ATCC number CRL-2190) are cultured in serum-free keratinocyte medium (GIBCO number 17005-042) supplemented with EGF and BPE for 48 hours (Ryan et al. 1994 Kidney Int 45:48-57). Medium is aspirated and cells are washed with PBS and incubated in the dark for 15 min at room temperature with 10 μl of media binding agent and 1.25 μl of FITC conjugated AnnexinV. Propidium iodide (10 μl) is added, and samples are analyzed immediately. Quantification of Annexin V-FITC and propidium iodide signals is performed by fluorescence microscopy (Axiovert 135; Carl Zeiss). Phase contrast images are observed using transmitted light. Apoptotic cells show cytoplasmic staining and viable cells remain unstained (FIG. 14A-FIG. 14D).

CYFDDSSNVLCKKYRS [SEQ ID NO 45] was tested, and the renal interstitial fibrosis [1] was “effectively reversed renal interstitial fibrosis” and the cisplatin-induced apoptosis (HK-2 cells) was “inhibits cisplatin-induced apoptosis”.
